A word on the EC50: it is the concentration needed to bring the measured effect to its halfway point. What is called EC90 is the concentration needed for an effect of 90%.

In data set [1] the test system is Influenza A (H1N1; New Caledonia/20/99). The data set can be described thus: microbe, parasite or virus in culture. Format: cell-based, influenza type A virus. The conditions noted are these: for EC50: Influenza A virus, H1N1, MDCK, MDCK cells, H1N1 New Caledonia/20/99; for antiviral activity rating in words: influenza virus A (H1N1).
The test system of data set [2] is Influenza A (H3N2; Panama/2007/99). The experiment in a line: microbe, parasite or virus in culture. The conditions noted are these: for EC50: MDCK cells, H3N2 Panama/2007/99; for SI (Safety Index = IC50/EC50): H3N2; for antiviral activity rating in words: influenza virus A (H3N2). It is filed as cell-based, influenza type A virus.
The subject of data set [3] is Influenza B (Hong Kong/330/02). The data set can be described thus: Antiviral assay in MDCK cells (CPE inhibition visual / Neutral Red), influenza B, initial and confirmatory test. Format: cell-based, influenza type B virus. The conditions noted are these: for antiviral activity rating in words: influenza virus B. On the procedure:
An antiviral test assay for the determination of the efficacy of DON was carried out according to the methods described in Furata et al., Antimicrobial Agents and Chemotherapy, 46(4):977-981 (2002). The vehicle used was Eagle's modification of minimum essential medium (EMEM). Two tests were carried out with different strains of influenza type A viruses and one test, followed by a confirmatory test, was carried out with an influenza type B virus strain. The cell type in all tests was Madin-Darby canine kidney cells (MDCK), and in all tests drug units and control units are expressed as micrograms/milliliter (μg/ml). […] The Safety Index (SI) of the drug could then be calculated according to the formula: SI═IC50/EC50. […] The Safety Index (SI) of the drug could then be calculated according to the formula: SI═IC50/ EC50, or SI═IC50/ EC90. All drug tests were carried out with stationary cells.

Data set [4] concerns Madin-Darby canine kidney cells (MDCK). The experiment in a line: cells. The settings on record: Canis lupus familiaris.
For data set [5] the test system is unchanged. The conditions noted are these: at concentrations of 1-100 μg/ml.
Where [6] appears, read: Influenza A virus, H3N2, MDCK, Neutral Red assay, read-out: EC50.
Where [7] appears, read: Influenza B virus, MDCK, Neutral Red assay, MDCK cells, influenza B Hong Kong/330/02, initial test, read-out: EC50.
Setting [8] is: Influenza B virus, MDCK, confirmatory test, visual method, MDCK cells, influenza B Hong Kong/330/02, read-out: EC50.
Setting [9] is: based on EC50 by Neutral Red, influenza B initial test.
Setting [10] is: read-out: IC50 (concentration toxic for 50% of MDCK host cells), in the influenza A H1N1 test, stationary cells.
Setting [11] is: read-out: IC50 (concentration toxic for 50% of MDCK host cells), in the influenza A H3N2 test, stationary cells.
Where [12] appears, read: read-out: IC50 (concentration toxic for 50% of MDCK host cells), in the influenza B confirmatory test, stationary cells.
The mark [13] stands for this setting: read-out: IC50 (concentration toxic for 50% of MDCK host cells), in the influenza B initial test, stationary cells.
Setting [14] is: based on EC50 by CPE inhibition (visual), H1N1.
Where [15] appears, read: based on EC50 by Neutral Red, H1N1.
The mark [16] stands for this setting: Influenza A virus, H3N2, MDCK, CPE inhibition (visual), read-out: EC50.
[17] abbreviates: based on EC50 by CPE inhibition (visual).
[18] abbreviates: Influenza B virus, MDCK, CPE inhibition (visual), MDCK cells, influenza B Hong Kong/330/02, initial test, read-out: EC50.
Setting [19] is: based on EC50 by CPE inhibition (visual), influenza B initial test.

Values after ≈ are worked out from the molar mass of the structure shown. Values joined by “and” are separate entries in the source; they are usually repeats but may differ in a detail not shown here. Identical values can stand only once. Like-named read-outs stand apart in the source and are kept apart here. Marks after values point to notes of the source that are not given here.

For the compound `NC(=O)c1ncn([C@@H]2O[C@H](CO)[C@@H](O)[C@H]2O)n1` [Positive control drug, ribavarin], the “SI (Safety Index = IC50/EC50)” value in data set [1] was more than 18; in data set [3] (setting [9]) it was >50 and >83; in data set [3] (influenza B confirmatory test), more than 56. Also, the EC50 in data set [1] (CPE inhibition (visual)) amounted to 5.5 µg/mL (≈ 22.5 µM); in data set [1] (Neutral Red assay) it was 5.5 µg/mL (≈ 22.5 µM); in data set [2] (setting [6]), 4.3 µg/mL (≈ 17.6 µM); in data set [2] (Neutral Red assay) it was 5.5 µg/mL (≈ 22.5 µM); in data set [3] (setting [7]), 2 µg/mL (≈ 8.19 µM); in data set [3] (setting [8]), 1.8 µg/mL (≈ 7.37 µM). Besides, the EC50 in data set [3] (Neutral Red assay, MDCK cells, influenza B Hong Kong/330/02, initial test) turned out to be 1.2 µg/mL (≈ 4.91 µM). For the same compound, the 90% effect concentration (EC90) in data set [3] (Influenza B virus, confirmatory test, visual method, MDCK cells, influenza B Hong Kong/330/02, read-out: EC90) came to 3.5 µg/mL (≈ 14.3 µM). Moreover, the “SI = IC50/EC90” value in data set [3] (influenza B confirmatory test) is listed as >29^b. Besides, the IC50 in data set [4] (setting [10]), in data set [4] (setting [11]), in data set [4] (setting [12]) and in data set [4] (setting [13]) was more than 100 µg/mL throughout.

In the case of `N[C@H](C(=O)O)[C@@H]1CC(Cl)=NO1` [acivicin, (alpha-S,5S)-alpha-amino-3-chloro-2-isoxazoline-5-acetic acid], the EC50 was 2.5 µg/mL (≈ 14 µM) in data set [1] (CPE inhibition (visual)); 1.3 µg/mL (≈ 7.28 µM) in data set [1] (Neutral Red assay); 50 µg/mL (≈ 280 µM) in data set [2] (setting [16]); 55 µg/mL (≈ 308 µM) in data set [2] (setting [6]); 0.32 µg/mL (≈ 1.79 µM) in data set [3] (setting [18]); 0.32 µg/mL (≈ 1.79 µM) in data set [3] (setting [7]). For the same compound, the “SI (Safety Index = IC50/EC50)” value in data set [1] (setting [14]) is more than 4; in data set [1] (setting [15]), more than 7.7; in data set [2] (setting [17]), more than 2; in data set [2] (based on EC50 by Neutral Red) it was 1.8; in data set [3] (setting [19]), more than 312; in data set [3] (setting [9]), more than 312. Besides, the “antiviral activity rating in words” value in data set [1] is given as “weakly active to active”; in data set [2], “not active”; in data set [3], “markedly active”. Further, the values for the IC50 in data set [4] (setting [10]), in data set [4] (setting [11]) and in data set [4] (setting [13]) were more than 100 µg/mL, not below 100 µg/mL and not below 100 µg/mL, respectively.

As for `[N-]=[N+]=CC(=O)CC[C@H](N)C(=O)O` [DON, 6-diazo-5-oxo-L-norleucine], the EC50 is 0.32 µg/mL (≈ 1.87 µM) in data set [1] (CPE inhibition (visual)); 0.21 µg/mL (≈ 1.23 µM) in data set [1] (Neutral Red assay); 2.3 µg/mL (≈ 13.4 µM) in data set [2] (setting [16]); 1.8 µg/mL (≈ 10.5 µM) in data set [2] (setting [6]); 0.032 µg/mL (≈ 0.187 µM) in data set [3] (setting [18]); 0.14 µg/mL (≈ 0.818 µM) in data set [3] (setting [7]). Besides, in data set [3] (setting [8]), the EC50 worked out at 0.18 µg/mL (≈ 1.05 µM). Besides, the “SI (Safety Index = IC50/EC50)” value in data set [1] (setting [14]) was 312; in data set [1] (setting [15]), 476; in data set [2] (setting [17]), 43; in data set [2] (based on EC50 by Neutral Red) it was 56; in data set [3] (setting [19]) it was 3,125; in data set [3] (setting [9]) it was 714. In addition, the “SI (Safety Index = IC50/EC50)” value in data set [3] (influenza B confirmatory test) is more than 555. The “antiviral activity rating in words” value in data set [1], in data set [2] and in data set [3] was “active to highly active” each time. Also, the EC90 in data set [3] (Influenza B virus, MDCK) worked out at 2.5 µg/mL (≈ 14.6 µM). Moreover, the “SI = IC50/EC90” value in data set [3] (influenza B confirmatory test) was 40^b. Moreover, the “toxicity in the neutral red assay” value in data set [5] is 25-50%. For the same compound, the “toxicity by neutral red assay in Vero cells compared with MDCK cells” value with Vero cells is listed as “much greater than in MDCK cells”. Also, the IC50 is more than 100 µg/mL in data set [4] (setting [10]), not below 100 µg/mL in data set [4] (setting [11]), more than 100 µg/mL in data set [4] (setting [12]) and not below 100 µg/mL in data set [4] (setting [13]).

The values above are taken from patent US20060276438A1 (priority 2004, published 2006).
